Assay results from paper PMC12392461, “Beyond Estrogenicity: A Comparative Assessment of Bisphenol A and Its Alternatives in In Vitro Assays Questions Safety of Replacements” (Environmental Science & Technology, 2025).

Tests used:
[1] = test system: HEK293H, HEK293T, H4IIe, MCF7 and SH-SY5Y cells; conditions: for cytotoxicity,median REPBPA,IC10: median IC10 relative to BPA; for IC10,Median (M): median cytotoxicity of all cell lines; for IC10, median: median cytotoxicity over all cell lines
Description: Cell culture conditions and bioassay protocols including response detection are provided in Text S2.1–2.4 and Table S3. − Cell viability was determined from cell confluency using an IncuCyte S3 Live-Cell Analysis System (Sartorius AG, Essen, Germany) before and after exposure, except for SH-SY5Y cells (live–dead staining with Nuclear Green LcS1 and propidium iodide, Abcam, UK). For metabolic activation experiments, cell viability was assessed using the ToxBLAzer DualScreen Kit (Thermo Fisher Scientific) to capture the remaining toxicity in ERα-UAS-bla GripTite after treatment with the aCYP catalyst (details in Text S2.4).
For ARE, the concentration that triggered an induction ratio of 1.5 (ECIR1.5) was used as the benchmark value, as detailed in Text S2.5. IC10 values also served as a threshold for data analysis in all assays; only concentrations below IC10 were considered when deriving EC10 or ECIR1.5.
TR indicates whether the cytotoxicity is triggered by specific toxicity mechanisms (TR ≥ 10) or not (0.1< TR< 10). 3 TR=IC10,baseline/IC10 We measured the cytotoxicity of BPA and its alternatives in HEK293H (PPARγ), HEK293T (ERα), H4IIe (AhR CALUX), MCF7 (ARE/MMP), and differentiated SH-SY5Y cells (Table S6). […]
medium, supplemented with 2% B-27 Supplement and 2 mM GlutaMAX Supplement. SH - SY5Y cells were differentiated with 10 µM all-trans retinoic acid prior to the assay.
S2.2: Cell Seeding and Incubation. For all bioassays, cell suspensions in the respective assay medium were dispensed into each well of 384-well plates using a MultiFlo Dispenser (Biotek, (now Agilent), Winooski, VT, U.S.). After seeding, the plates were incubated at 37° C and 5% CO₂ for […]. The final cell densities and plate types were as follows: Black poly-D-lysine […]
6500 cells/well, ERα: 5000 cells/well. White 384-well plates with a clear bottom (Product No.
NYC, U.S.) for AhR: 3250 cells/well. Black Collagen I coated plates were used (Product No.
S2.3: Chemical Dosing and Assay Analysis Procedures. The dosing procedure and high-throughput assay workflow have been described in detail before. 9 The dosing concentrations […]
Stock solutions were then either added directly to the respective cell culture medium or evaporated under nitrogen, followed by replenishment with fresh medium. The final solvent content in each well was kept below 1% for methanol, 0% for acetonitrile.
Dosing plates were prepared as 11 -step serial dilutions using a Hamilton Microlab Star robotic system (Hamilton, Bonaduz, Switzerland), and chemicals were dosed in duplicates by transferring 10 μL twice from the dosing plates to the cell plates . After quantifying cell confluency as described in S2. 4., the exposed cells were incubated at 37° C and 5% CO₂ for an additional 24 h. All chemicals were tested in all assays with at least three independent […]
S2.4: Cell Viability Measurement s and bioanalytical protocols . The confluency as a measure of cell viability was determined with an IncuCyte S3 Live -Cell Analysis System (Sartorius AG, Essen, Germany). With this method the confluency of cells in a microscopy image are normalized to control wells without cells and compared before and after 24 hours of exposure.
This method has been described previously 13. Cell viability of SH-SY5Y cells was measured […]
propidium iodide (PI, Abcam, Cambridge, U.K.).14 Nuclear Green LCS1 is a membrane-permeable dye that stains the nuclei of all cells, whereas PI only enters cells with compromised membrane integrity (non-viable cells). After staining, live cells show green nuclei without red fluorescence, while dead cells display both green and red nuclear fluorescence due to PI […]
intercalation. Cell viability was calculated as the proportion of green-only nuclei relative to the […]
For experiments with the preceding aCYP activation, ERα cell viability was additionally calculated from the readout of the ToxBLAzer reagent. The ToxBLAzer assay was conducted following the manufacturer's instructions (Thermo Fisher, Waltham, MA, U.S.).13 Fluorescence

[2] = 15 min
[3] = Octanol-water partition constant (log Kow) measurement, Sirius T3 potentiometric log P; type: physicochemical; conditions: experimental, this study
Description: Physicochemical properties provide input parameters for the baseline toxicity model. Acidity constants (pK a) and octanol–water partition constants of the neutral species (K ow) were measured with a Sirius T instrument from Pion Inc. (Sussex, UK) (Text S1.2 and Table S1). A detailed description of the pK a and K ow measurements can be found in literature. , […]
S1.2: pKa and log Kow measurements […]
titrator (Pion Inc., Sussex, U.K.). […]
UV absorbance. For log Kow measurement, approximately 1 mg of test chemical was added to a sample vial and the measurement was done automatically via the potentiometric log P protocol. Briefly, each compound is titrated thrice in an immiscible biphasic system of octanol and phosphate buffer solution and pH is continuously recorded. The shift in p Ka -values was used to estimate the log Kow values.2, 3 Data processing was performed with Sirius T3 Refine software (version 2.0.0.0.), and the final p Ka and log Kow values were calculated as the average of three titrations. To ensure reproducibility, measurements were conducted on at least two

Estrogen Receptor ERα = target: T1, Estrogen Receptor ERα (Homo sapiens, UniProt P03372); assay: cell-based; conditions: for EC10, ERα (M): 10% of maximum effect of E2; for EC10, linear transformed / EC10, linear / EC10: in M; for Efficacy % / EC10 / REPBPA: This Study; for EC10: ERα; for REPBPA: relative estrogenic potency vs BPA; for EC10, ERα: effect; for log(1/EC10) ERα: input of the ToxPi score, values up to 1.00; for Emax: read-out: Emax%ERα, maximum efficacy relative to E2
T1 sequence (P03372 311-547 limits assumed): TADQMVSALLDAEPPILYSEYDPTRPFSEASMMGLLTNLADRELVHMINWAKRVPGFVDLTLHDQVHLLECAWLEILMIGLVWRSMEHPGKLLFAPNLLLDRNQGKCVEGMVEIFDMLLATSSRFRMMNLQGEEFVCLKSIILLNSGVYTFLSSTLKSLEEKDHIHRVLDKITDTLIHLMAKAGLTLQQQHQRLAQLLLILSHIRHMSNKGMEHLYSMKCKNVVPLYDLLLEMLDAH
Outline: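 ERα-UAS-bla GripTite and PPARγ-UAS-bla β-lactamase reporter cells were seeded and held 24 h at 37 °C, 5% CO₂ before dosing. EC10 values used only concentrations below the IC10 from IncuCyte confluency. Emax% is the log-logistic curve maximum relative to the reference chemical's maximum.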

[4] = Bioassay ERα, dosing range high
[5] = Bioassay ERα, dosing range high, linear model fit
[6] = Bioassay ERα, dosing range high, log-logistic model fit

Structure (SMILES) | cytotoxicity,median REPBPA,IC10 [1] | IC10,Median (M) [1] | IC10, median [1] | reduction of C parent after aCYP oxidation [2] | log Kow used [3] | % Loss [2] | EC10, ERα (M) (Estrogen Receptor ERα) | EC10, linear transformed (Estrogen Receptor ERα; [4]) | EC10, linear (Estrogen Receptor ERα; [5]) | logEC10 (Estrogen Receptor ERα; [6]) | Efficacy % (Estrogen Receptor ERα) | EC10 (Estrogen Receptor ERα) | REPBPA (Estrogen Receptor ERα) | EC10, ERα (Estrogen Receptor ERα) | log(1/EC10) ERα (Estrogen Receptor ERα) | Emax (Estrogen Receptor ERα) | other results
CC(c1ccccc1)(c1ccc(O)cc1)c1ccc(O)cc1 [BPAP, 4,4'-(1-Phenylethylidene)bisphenol] | 2.12 | 3.31 × 10^–5 M | 33.1 µM | 25% | 5.06 | – | – | – | – | – | – | – | – | – | – | – | –
CCC(C)(c1ccc(O)cc1)c1ccc(O)cc1 [BPB, 4,4'-(Butane-2,2-diyl)diphenol] | 1.93 | 3.62 × 10^–5 M | 36.2 µM | – | 3.72 | 12% | 1.35 × 10^–7 M | 5.57E-08 | 8.29E-08 | -7.27 | 23.67% | 1.35E-07 | 2.74E+00 | 135 nM | 0.88 | 24% | Cparent-Ratio Mean [2]: 0.88; Cparent-Ratio Rep.1 [2]: 0.80; Cparent-Ratio Rep.1 % [2]: 79.66%; Cparent-Ratio Rep.2 [2]: 0.96; Cparent-Ratio Rep.2 % [2]: 96.18%; EC10, linear transformed (Estrogen Receptor ERα; Bioassay ERα, dosing range low): 1.07E-07; EC10, linear (Estrogen Receptor ERα; Bioassay ERα, dosing range low, linear model fit): 1.35E-07; logEC10 (Estrogen Receptor ERα; Bioassay ERα, dosing range low, log-logistic model fit): -6.97; REPBPA,ERα (relative effect potency in relation to BPA) (Estrogen Receptor ERα; EC10,BPA/EC10,BPx): 3; SR-ScoreERα (Estrogen Receptor ERα; SR-Score, sigma k=1, x=5): 1.00; Specificity ratio (SRbaseline) SRERα (Estrogen Receptor ERα; against baseline cytotoxicity): 66.42; Specificity ratio (SRcytotoxicity) SRERα (Estrogen Receptor ERα; against experimental cytotoxicity): 154.61; Relative effect potency REPERα (Estrogen Receptor ERα; relative to BPA): 2.74
CC(c1ccc(O)cc1)c1ccc(O)cc1 [BPE, 4,4′-Ethylidenbisphenol] | 0.88 | 7.91 × 10^–5 M | 79.1 µM | – | 4.05 | 21% | – | – | – | – | – | – | – | – | – | – | –
O=S(=O)(c1ccc(O)cc1)c1ccc(O)cc1 [BPS, 4,4'-Sulfonyldiphenol] | – | 5.61 × 10^–4 M | 561 µM | – | 1.97 | -2% | 1.43 × 10^–6 M | 1.15E-06 | 1.20E-06 | -5.97 | 65.69% | 1.43E-06 | 2.59E-01 | 1430 nM | 0.75 | 66% | EC10, linear transformed (Estrogen Receptor ERα; ERα bioassay, dosing range low): 1.65E-06; EC10, linear (Estrogen Receptor ERα; ERα bioassay, dosing range low, linear model): 1.43E-06; logEC10 (Estrogen Receptor ERα; ERα bioassay, dosing range low, log-logistic model): -5.76
Oc1ccc(Cc2ccc(O)cc2)cc1 [BPF, Bis(4-hydroxyphenyl)methane] | 0.17 | 4.09 × 10^–4 M | 409 µM | 48% | 2.71 | – | 9.95 × 10^–7 M | – | – | – | 60.05% | 9.95E-07 | 3.72E-01 | 995 nM | 0.77 | 50 to 60% | EC10, linear transformed (Estrogen Receptor ERα; Bioassay ERα, dosing range all): 9.67E-07; EC10, linear (Estrogen Receptor ERα; Bioassay ERα, dosing range all, linear model fit): 1.45E-06; logEC10 (Estrogen Receptor ERα; Bioassay ERα, dosing range all, log-logistic model fit): -6.00; Emax%ERα (Estrogen Receptor ERα; maximum efficacy relative to E2): 60%
